Assay results from patent publication US20090220421A1, “METHOD FOR SCREENING MTP-INHIBITING COMPOUNDS” (priority 2005, published 2009).

How the values were obtained:
[1] = target: T1, microsomal triglyceride transfer protein (MTP) (Mesocricetus auratus, UniProt P55158); experiment: Test B: qualitative analysis of the inhibition of MTP activity in vitro (labelled triglyceride transfer, SPA); format: biochemical, golden hamster; conditions: [3H]-triolein transfer from liposomes to LDL-biot, 18-24 hours at 37° C.; read-out: IC50 (concentration that allows a 50% inhibition of MTP)
T1 construct: The supernatant comprising the soluble MTP is dialysed; from tissue; host or cells: golden hamster liver microsomes, deoxycholate-solubilised supernatant
T1 sequence (P55158 19-895): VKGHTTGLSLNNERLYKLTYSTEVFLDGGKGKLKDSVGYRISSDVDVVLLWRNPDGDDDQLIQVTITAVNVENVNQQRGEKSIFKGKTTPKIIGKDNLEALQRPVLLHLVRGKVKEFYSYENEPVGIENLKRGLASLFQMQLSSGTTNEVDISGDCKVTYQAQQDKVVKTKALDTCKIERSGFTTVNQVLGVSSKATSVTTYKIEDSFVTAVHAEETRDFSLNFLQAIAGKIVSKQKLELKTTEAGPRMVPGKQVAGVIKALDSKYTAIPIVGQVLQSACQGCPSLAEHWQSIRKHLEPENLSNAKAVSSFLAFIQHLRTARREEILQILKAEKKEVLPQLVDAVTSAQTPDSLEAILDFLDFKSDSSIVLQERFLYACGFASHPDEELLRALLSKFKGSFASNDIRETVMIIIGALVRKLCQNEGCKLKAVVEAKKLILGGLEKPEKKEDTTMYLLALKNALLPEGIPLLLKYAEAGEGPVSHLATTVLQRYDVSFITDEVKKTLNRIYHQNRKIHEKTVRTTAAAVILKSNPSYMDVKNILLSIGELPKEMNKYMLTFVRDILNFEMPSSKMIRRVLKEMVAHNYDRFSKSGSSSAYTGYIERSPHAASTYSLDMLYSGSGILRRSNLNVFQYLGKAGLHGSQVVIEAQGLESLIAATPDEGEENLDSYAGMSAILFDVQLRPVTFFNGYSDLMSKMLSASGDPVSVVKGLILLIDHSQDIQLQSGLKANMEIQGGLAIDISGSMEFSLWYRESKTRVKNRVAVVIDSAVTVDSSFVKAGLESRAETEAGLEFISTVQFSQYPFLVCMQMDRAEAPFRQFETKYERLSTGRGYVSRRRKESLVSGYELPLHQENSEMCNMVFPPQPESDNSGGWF
Protocol: Qualitative Analysis of the Inhibition of Mtp Activity In Vitro
The inhibition of the activity of microsomal triglyceride transfer protein (MTP) was tested by using the following operating protocol.
The inhibition of MTP activity with a compound may be quantified by observing the inhibition of the transfer of a labelled triglyceride, from a donor particle to an acceptor particle, in the presence of MTP. The procedure for the preparation of MTP is based on the method by Wetterau and Zilversmit (Biochem. Biophys. Acta (1986) 875, 610). A few grams of golden hamster liver are taken and then rinsed several times in a 250 mM sucrose solution at 0° C. All the following steps proceed at +4° C. […]
The reaction mixture is prepared in untreated ½ well white plates (Corning Costar) by addition, in the following order, of: 5 μl of HEPES 50 mM, NaCl 150 mM, BSA 0.1% (w/v), 0.05% sodium azide (w/v), pH 7.4 buffer; 5 μl of liposomes; 5 μl of LDL-biot; 5 μl of test products in DMSO 5 μl of MTP. After incubation for 18-24 hours at 37° C., the reaction is stopped by adding 100 μl of Amersham SPA (Scintillation Proximity Assay) beads coupled to streptavidin, and the radioactivity is counted using a Top Count (Packard) machine at least one hour later. The inhibition of the transfer of the triglycerides with a compound is reflected by a reduction in the transferred radioactivity. […]

[2] = test system: apoB secretion in HepG2 cells; experiment: Test C: inhibition of apoB secretion in the HepG2 human cell line (sandwich ELISA); format: cell-based; conditions: 24 hours incubation, read-out: IC50 (concentration that produces a 50% inhibition of apoB secretion in the HepG2 cells)
Protocol: Qualitative Analysis of the Secretion of apoB in the HepG2 Human Cell Line
The activity of a compound may be evaluated by measuring the inhibition of apoB secretion in HepG2 cells.
The HepG2 cells (ECACC-No. 85011430) are used as model in the study of the in vitro hepatic secretion of lipoproteins, as described by Dixon J. and Ginsberg H. (J. Lipid. Res., (1993), 34, 167-179).
The HepG2 cells are cultured in Dulbecco's modified Eagle's medium comprising 10% foetal calf serum (DMEM and FBS-Gibco) in 96-well plates under an atmosphere of 5% carbon dioxide for 24 hours (about 70% confluence).
The test compounds are dissolved at a concentration of 2 or 10 mM in dimethyl sulfoxide (DMSO). Serial dilutions (1:3.16) are made in DMSO and are added (1:200—Robot Multimek Beckman) to the growth medium (200 μl) and then finally incubated for 24 hours in the various wells containing the HepG2 cells.
The 24-hour culture supernatant diluted to 1:5 (phosphate-buffered saline: PBS comprising 1% bovine serum albumin) is tested according to a sandwich-ELISA method specific for human apoB.
The results, presented in Table II below for compounds 1 and 2, are expressed in terms of IC50, i.e. the concentration that produces a 50% inhibition of apoB secretion in the HepG2 cells.

[3] = test system: secretion of apoB by HepG2 cells; experiment: Test Avitro: kinetics (reversibility) of inhibition of secretion of apoB by HepG2 cells; format: cell-based, human
Protocol: Analyse of the Kinetics (Reversibility) of Inhibition of Secretion of apoB by HepG2 Cells:
HepG2 cells are placed in contact with the products as described in the preceding paragraph and the secretion of ApoB is measured after 6 and 24 hours. The comparison is made at equipotent dose for the inhibition of secretion of apoB after 24 hours.
Next, the products are removed from the culture medium (during changes of the medium at 0, 6, 24 and 48 hours) and the secretion of ApoB is again measured to determine the kinetics for return to normal secretion. The reversibility is judged satisfactory if the secretion, 24 hours after removal of the products, has a value greater than or equal to 70% of that of the controls (blank cells without compound).

[4] = Test D: metabolisation/inactivation of the product in rodent liver microsomes; format: in vitro ADME; conditions: 0.5 mg/ml microsomes, 10 μM test product, 1 hour at 37° C., disappearance of parent by LC/MS/MS
Protocol: Metabolisation/Inactivation of the Product
The products are evaluated for their capacity to be inactivated rapidly in vitro. […] The incubation medium is prepared by mixing together the following constituents: NAD (1 mM), glucose 6 phosphate (5 mM), NADP (1 mM), glucose 6 phosphate dehydrogenase (1 IU/ml), bovine serum albumin (1 mg/ml), TRIS (10 mM pH=7.6), MgCl2 (5 mM).
A concentration of 0.5 mg/ml of microsomes (Biopredic) is placed in contact with 10 μM of test product. The mixture is incubated for 1 hour at 37° C. A fraction of the preparation is taken at the initial time, to which is added an equivalent volume of ethanol (quenching of the reaction by precipitation of the proteins). The same operation is repeated after 1 hour of incubation.
The samples obtained are centrifuged at 4000 rpm for 10 minutes, and the supernatant is analysed by LC/MS/MS. The percentage of disappearance of the parent product between T0 and T60 minutes is determined by calculating the areas of the chromatographic peaks.
(§1) Potential metabolites M1 and M2 (of the compounds 1 or 2, respectively) are identified, resynthesised and evaluated for their MTP-inhibiting activity.

MTP = target: T2, MTP (Mesocricetus auratus, UniProt P55158); experiment: Test D: MTP-inhibiting activity of the resynthesised metabolites; format: biochemical; conditions: MTP-inhibiting activity of metabolites M1, M2 of the compound
T2 sequence (P55158 19-895): T1 sequence (P55158 19-895)
Description: Thus, Test A may also be preceded or followed, preferably followed, by one or more tests of inhibition of MTP and/or of inhibition of the secretion of VLDLs and/or of inhibition of the secretion of apoB, which are similar or even identical to the Tests B and/or C, respectively, defined above, but performed this time on the plasmatic metabolites of the candidate compounds. These tests on the metabolites will be referred to hereinbelow as Test D (metabolites/MTP inhibition test) and Test E (metabolites/apoB inhibition test).
as §1

[5] = test system: secretion of VLDL (hepatic MTP); experiment: Test F: inhibition of secretion of VLDL in rats (triton technique); format: in vivo, Male Wistar rats; conditions: 100 mg/kg orally, between 1 hour and 6 hours after treatment, relative to controls
Protocol: Inhibition of Secretion of VLDL in Rats:
The inhibition of hepatic MTP by compounds 1 and 2 was evaluated from their impact on the secretion of very low density lipoproteins (VLDLs). Male Wistar rats (220-280 g) receive a standard diet and water ad libitum. On the day of the experiment, the animals (n=7) are fasted and, one hour later, are treated with the compounds (100 mg/kg orally; excipient 0.5% methylcellulose). The secretion of VLDL is measured one hour after treatment, and for 5 hours, via the triton technique (WR 1339). When it is injected into the bloodstream, triton (400 mg/kg) prevents the catabolism of the VLDLs by inhibiting their lipolysis via lipoprotein lipase and by inhibiting their uptake by tissues. Measurement of the accumulation of triglycerides (TG) and of cholesterol, which is a component of VLDLs, thus makes is it possible to reveal the secretion of VLDL by the liver.
The effect of the product on the secretion of VLDL is thus evaluated between 1 hour and 6 hours after treatment at a dose of 100 mg/kg, i.e. between 0 and 5 hours after the intravenous injection of triton. Blood samples are taken at regular intervals under gaseous anaesthesia, to assay of the triglycerides and the cholesterol. […] The levels of inhibition relative to controls not treated with the compounds are determined, and the results are collated in Table V.

secretion of VLDL = experiment: Test Avivo: duration of action of MTP inhibitors on the secretion of VLDL; format: in vivo, fatty fa/fa Zucker rats; conditions: between 6 and 8 hours after treatment
Protocol: Determination of the Duration of Action of MTP Inhibitors on the Secretion of VLDL
This test makes it possible to evaluate the kinetics of inhibition of MTP-inhibiting compounds on the secretion of VLDL in fatty fa/fa Zucker rats (10-12 weeks old), which is an animal model characterised by hypersecretion of VLDL. The intensity and duration of inhibition are measured via the triton technique described above over a period ranging up to 8 hours after administration of the products. Since the duration of action of a product depends both of the administered dose and on its intrinsic characteristics, it is determined at a dose of makes it possible to reach a maximum inhibition (Imax) of at least 50% over a significant time interval. The comparison of the profile of duration of action of two compounds that may have different potentials is thus performed at respective doses that allow similar Imax values to be obtained.

O=C(NC1CCN(Cc2cccnc2)CC1)c1ccccc1-c1ccc(C(F)(F)F)cc1 [Compound 1]
IC50 [1]: 320 nM
IC50 [2]: 18 nM
Secretion of apoB 24 hours after removal of the products (% of the controls) [3]: >85%
Metabolisation (%/hour) [4]: 88 %/hour
Activity of the metabolites (MTP): M1, M2 inactive
Inhibition of secretion of VLDL-TG [5]: −56%
Inhibition of secretion of VLDL-cholesterol [5]: −45%
residual inhibition of VLDL secretion (secretion of VLDL): absence of significant residual inhibition
